Reference: article PMC8438664 (ACS Infectious Diseases, 2021)

Tests used:
[1] = lipid II of VanA or VanB positive strains; cited from earlier work
[2] = system: conditionally immortalized proximal tubule epithelial cells (ciPTECs) overexpressing OAT-1; experiment: ciPTEC cell viability assay; format: cell-based, human; conditions: 24 h, relative mitochondrial activity (PrestoBlue)

Structure (SMILES): CN[C@H](CC(C)C)C(=O)N[C@H]1C(=O)N[C@@H](CC(N)=O)C(=O)N[C@H]2C(=O)N[C@H]3C(=O)N[C@H](C(=O)N[C@H](C(=O)O)c4cc(O)cc(O)c4-c4cc3ccc4O)[C@H](O)c3ccc(c(Cl)c3)Oc3cc2cc(c3O[C@@H]2O[C@H](CO)[C@@H](O)[C@H](O)[C@H]2O[C@H]2C[C@](C)(N)[C@H](O)[C@H](C)O2)Oc2ccc(cc2Cl)[C@H]1O [Vancomycin]
- fold reduction in binding affinity on mutation of D-Ala-D-Ala to D-Ala-D-Lac [1]: > 1000 fold
- viability at a concentration of 1 mM [2]: > 50%
